Source: ChEMBL document CHEMBL1126574, “Non-peptide angiotensin II receptor antagonists. 2. Design, synthesis, and biological activity of N-substituted (phenylamino)phenylacetic acids and acyl sulfonamides” (J Med Chem, 1993)

How the values were obtained:
[1] = molecular target: T1, Type-1 angiotensin II receptor (Oryctolagus cuniculus, UniProt P34976); test: In vitro antagonist activity against angiotensin II receptor type 1 in rabbit aorta using [125I]-Sar, Ile AII.; type: functional, tissue-based
T1 sequence (P34976 whole entry): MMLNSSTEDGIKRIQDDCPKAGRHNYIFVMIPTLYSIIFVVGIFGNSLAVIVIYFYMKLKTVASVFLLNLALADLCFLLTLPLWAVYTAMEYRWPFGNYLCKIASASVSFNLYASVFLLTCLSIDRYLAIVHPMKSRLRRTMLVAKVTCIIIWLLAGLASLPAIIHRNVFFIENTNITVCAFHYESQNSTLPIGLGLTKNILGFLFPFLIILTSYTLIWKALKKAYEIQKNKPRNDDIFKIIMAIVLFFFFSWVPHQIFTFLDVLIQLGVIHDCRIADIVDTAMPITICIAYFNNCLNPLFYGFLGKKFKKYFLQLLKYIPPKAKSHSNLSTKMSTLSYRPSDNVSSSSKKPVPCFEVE

[2] = molecular target: T2, Type-2 angiotensin II receptor (Rattus norvegicus, UniProt P35351); test: In vitro antagonist activity against angiotensin II type 2 (AT2) receptor in rat midbrain using [125I]- Sar, Ile AII.; type: functional
T2 sequence (P35351 whole entry): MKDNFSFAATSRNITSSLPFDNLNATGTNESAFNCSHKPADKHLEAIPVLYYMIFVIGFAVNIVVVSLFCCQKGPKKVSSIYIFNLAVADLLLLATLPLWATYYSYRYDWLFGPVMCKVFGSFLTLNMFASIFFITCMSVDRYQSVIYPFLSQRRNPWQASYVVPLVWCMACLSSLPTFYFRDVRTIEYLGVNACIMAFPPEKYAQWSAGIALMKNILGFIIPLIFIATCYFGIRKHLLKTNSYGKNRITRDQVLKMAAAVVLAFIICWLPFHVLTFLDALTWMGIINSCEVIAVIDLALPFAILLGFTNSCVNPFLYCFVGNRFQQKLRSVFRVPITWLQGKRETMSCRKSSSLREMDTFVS

IC50 [1] [nM]	IC50 [2] [nM]	Compound
380	> 10000	CCc1nc2c(C)cc(C)nc2n1Cc1ccc(N(CC)C(C(=O)O)c2ccccc2Cl)cc1 (stereo not given)
70	11000	CCc1nc2c(C)cc(C)nc2n1Cc1ccc(N(C)C(C(=O)O)c2ccccc2)c(C)c1 (stereo not given)
1900	12000	CCc1nc2c(C)cc(C)nc2n1Cc1ccc(N(CC)C(C(=O)O)c2cc(C(F)(F)F)cc(C(F)(F)F)c2)cc1 (stereo not given)
200	8800	C=CCN(c1ccc(Cn2c(CC)nc3c(C)cc(C)nc32)cc1)C(C(=O)O)c1cc(F)ccc1F (stereo not given)
34	4300	C=CCN(c1ccc(Cn2c(CC)nc3c(C)cc(C)nc32)cc1C)C(C(=O)O)c1ccccc1 (stereo not given)
88	> 10000	CCc1nc2c(C)cc(C)nc2n1Cc1ccc(N(CC)C(C(=O)O)c2cc(F)ccc2F)cc1 (stereo not given)
100	11000	CCc1nc2c(C)cc(C)nc2n1Cc1ccc(NC(C(=O)O)c2ccccc2)c(C)c1 (stereo not given)
4	740	CCc1nc2c(C)cc(C)nc2n1Cc1ccc(N(CC)C(C(=O)O)c2ccccc2)cc1 (stereo not given)
860	6000	CCc1nc2c(C)cc(C)nc2n1Cc1ccc(NC(C(=O)O)c2cc(C(F)(F)F)cc(C(F)(F)F)c2)cc1 (stereo not given)
22	> 300	CCc1nc2c(C)cc(C)nc2n1Cc1ccc(N(CC(C)C)C(C(=O)O)c2ccccc2)cc1 (stereo not given)
5.3	490	C=CCN(c1ccc(Cn2c(CC)nc3c(C)cc(C)nc32)cc1)C(C(=O)O)c1ccccc1 (stereo not given)
	> 10000	CCc1nc2c(C)cc(C)nc2n1Cc1ccc(-c2ccccc2-c2nnn[nH]2)cc1 [L-158809]
82	11000	C=CCN(c1ccc(Cn2c(CC)nc3c(C)cc(C)nc32)cc1C)C(C(=O)O)c1ccccc1C (stereo not given)
28	19000	CCc1nc2c(C)cc(C)nc2n1Cc1ccc(NC(C(=O)O)c2ccccc2C)c(C)c1 (stereo not given)
10	8600	CCc1nc2c(C)cc(C)nc2n1Cc1ccc(N(CC)C(C(=O)O)c2ccccc2)c(C)c1 (stereo not given)
0.9	200	CCc1nc2c(C)cc(C)nc2n1Cc1ccc(N(CC)C(C(=O)NS(=O)(=O)c2ccccc2)c2ccccc2)cc1 (stereo not given)
> 100	> 10000	CCc1nc2c(C)cc(C)nc2n1Cc1ccc(N(C)C(C(=O)O)c2cc(F)ccc2F)cc1 (stereo not given)
12	4800	CCCN(c1ccc(Cn2c(CC)nc3c(C)cc(C)nc32)cc1C)C(C(=O)O)c1ccccc1 (stereo not given)
5.3	560	CCCN(c1ccc(Cn2c(CC)nc3c(C)cc(C)nc32)cc1)C(C(=O)O)c1ccccc1 (stereo not given)
31	2200	CCc1nc2c(C)cc(C)nc2n1Cc1ccc(N(CC2CC2)C(C(=O)O)c2ccccc2)cc1 (stereo not given)
94	660	CCCCN(c1ccc(Cn2c(CC)nc3c(C)cc(C)nc32)cc1)C(C(=O)O)c1ccccc1 (stereo not given)
200	21000	CCc1nc2c(C)cc(C)nc2n1Cc1ccc(NC(C(=O)O)c2ccccc2)cc1 (stereo not given)
0.8	420	CCCN(c1ccc(Cn2c(CC)nc3c(C)cc(C)nc32)cc1)C(C(=O)NS(=O)(=O)c1ccccc1)c1ccccc1 (stereo not given)
1	2900	C=CCN(c1ccc(Cn2c(CC)nc3c(C)cc(C)nc32)cc1)C(C(=O)NS(=O)(=O)c1ccccc1)c1ccccc1 (stereo not given)
80	1600	CCc1nc2c(C)cc(C)nc2n1Cc1ccc(N(C(C)CC)C(C(=O)O)c2ccccc2)cc1 (stereo not given)
15	> 30000	CCc1nc2c(C)cc(C)nc2n1Cc1ccc(N(C)C(c2ccccc2)c2nnn[nH]2)cc1 (stereo not given)
66	2100	CCc1nc2c(C)cc(C)nc2n1Cc1ccc(N(CC)C(C(=O)O)c2cccc(C)c2)cc1 (stereo not given)
8.2	3400	CCc1nc2c(C)cc(C)nc2n1Cc1ccc(N(C)C(C(=O)O)c2ccccc2)cc1 (stereo not given)
